Patent publication US6956040B2, “Oxazolidinone piperazinyl derivatives as potential antimicrobials” (Ranbaxy Laboratories Limited, priority 2001, dated 2005)
≈ marks a conversion by molar mass, not a printed value.

Key:
S. pneum 6303 = test: MIC, agar incorporation method; assay type: cell-based, Streptococcus pneumoniae; conditions: S. pneum 6303; agar incorporation
Excerpt: (§1) The compounds of the invention display antibacterial activity when tested by the agar incorporation method. The following minimum inhibitory concentrations (μg/ml) were obtained for representative compounds of the invention which are given below in the following tables.
(§2) • 1) S.aureus ATCC 25923—Staphylococus aureus ATCC 25923 • 2) MRSA 15187—Methicillin Resistant Staphylococcus aureus • 3) Ent. faecalis ATCC 29212—Enterococcus faecalis ATCC 29212 • 4) Ent. faecium 6A—Enterococcus faecium 6A Van®, Cipro® • 5) Strep. pne. ATCC 6303—Streptococcus pneumoniae ATCC 6303 • 6) Strep. pyog. ATCC 19615—Streptococcus pyogenes • 7) S. epidermidis—Staphylococcus epidermidis ATCC 12228
(§3) Briefly, the compounds were dissolved in DMSO and doubling dilution of the compounds were incorporated into Meuller Hilton agar before solidification. Inoculum was prepared by suspending 4 to 5 colonies into 5 ml of normal saline solution and adjusting the turbidity to 0.5 Macfarland turbidity standard tables (1.5×10^8 CFU/ml), after appropriate dilutions, 10^4 CFU/spot was transfered into the surface of dried plate and incubated for 18 hours (24 hours for MRSN studies). The concentration showing no growth of the inoculated culture was recorded as the MIC. Appropriate ATCC standard strains were simultaneously tested and result recorded only when the MIC's against standard antibiotics were within the acceptable range.

S. pyogenes 19615 = test: MIC, agar incorporation method; assay type: cell-based, Streptococcus pyogenes; conditions: S. pyogenes 19615; agar incorporation
Excerpt: as §1, §2, §3

MRSA 562 [1] = test: In vivo activity against MRSA 562 (ED50); set-up: species or system Staphylococcus aureus
E. faecalis 29212 = test: MIC, agar incorporation method; assay type: cell-based, Enterococcus faecalis; conditions: E. faecalis 29212; agar incorporation
Excerpt: as §1, §2, §3

S. pneum AB 34 = test: MIC, agar incorporation method; assay type: cell-based, Streptococcus pneumoniae; conditions: S. pneum AB 34; agar incorporation
Protocol: as §1, §3

VRE 6A = test: MIC, agar incorporation method; assay type: cell-based, Enterococcus faecium; conditions: VRE 6A; agar incorporation
Excerpt: as §1, §2, §3

MRSA 33 = test: MIC, agar incorporation method; assay type: cell-based, Staphylococcus aureus; conditions: MRSA 33; agar incorporation
Protocol: as §1, §3

S. aureus 25923 = test: MIC, agar incorporation method; assay type: cell-based, Staphylococcus aureus; conditions: S. aureus 25923; agar incorporation
Excerpt: as §1, §2, §3

MRSA 15187 = test: MIC, agar incorporation method; assay type: cell-based, Staphylococcus aureus; conditions: MRSA 15187; agar incorporation
Excerpt: as §1, §2, §3

MRSA 562 [2] = test: MIC, agar incorporation method; assay type: cell-based, Staphylococcus aureus; conditions: MRSA 562
Protocol: as §1, §3

Row | Structure (SMILES) | MIC (S. pneum 6303) | MIC (S. pyogenes 19615) | ED50 (mg/kg body weight) PO (MRSA 562 [1]) | MIC (E. faecalis 29212) | MIC (S. pneum AB 34) | MIC (VRE 6A) | MIC (MRSA 33) | MIC (S. aureus 25923) | MIC (MRSA 15187) | MIC (MRSA 562 [2]; Table 5) | MIC (MRSA 562 [2]; agar incorporation, Table 1)
1 | CC(=O)NC[C@H]1CN(c2ccc(N3CCN(C(=O)c4ccc(Br)o4)CC3)c(F)c2)C(=O)O1 [Compound No. 04] | 1 µg/mL (≈ 1.96 µM) | 2 µg/mL (≈ 3.93 µM) | >25 mg/kg body weight | 2 µg/mL (≈ 3.93 µM) | 1 µg/mL (≈ 1.96 µM) | 1 µg/mL (≈ 1.96 µM) | 2 µg/mL (≈ 3.93 µM) | 2 µg/mL (≈ 3.93 µM) | 2 µg/mL (≈ 3.93 µM) |  | 
2 | CC(=O)NC[C@H]1CN(c2ccc(N3CCN(C(=O)C(=O)c4cccs4)CC3)c(F)c2)C(=O)O1 [Compound No. 07, (S)-N[[3-[3-Fluoro-4-[N-1[4-{2-(2-thienyl)dicarbonyl}]-piperazinyl]phenyl]2-oxo-5-oxazolidinyl]methyl]acetamide] | 2 µg/mL (≈ 4.21 µM) | 0.5 µg/mL (≈ 1.05 µM) | >25 mg/kg body weight | 2 µg/mL (≈ 4.21 µM) | 2 µg/mL (≈ 4.21 µM) | 2 µg/mL (≈ 4.21 µM) | 2 µg/mL (≈ 4.21 µM) | 2 µg/mL (≈ 4.21 µM) | 2 µg/mL (≈ 4.21 µM) | 2 µg/mL (≈ 4.21 µM) | 2 µg/mL (≈ 4.21 µM)
3 | CC(=O)NC[C@H]1CN(c2ccc(N3CCN(Cc4cccn4C)CC3)c(F)c2)C(=O)O1 [Compound No. 22, (S)-N[[3-[3-Fluoro-4-[N-1[4-{2-pyrrole(1-methyl)methyl}]-piperazinyl]phenyl]2-oxo-5-oxazolidinyl]methyl]acetamide] | 1 µg/mL (≈ 2.33 µM) | 1 µg/mL (≈ 2.33 µM) |  | 8 µg/mL (≈ 18.6 µM) | 1 µg/mL (≈ 2.33 µM) | 8 µg/mL (≈ 18.6 µM) | 8 µg/mL (≈ 18.6 µM) | 2 µg/mL (≈ 4.66 µM) | 8 µg/mL (≈ 18.6 µM) |  | 4 µg/mL (≈ 9.31 µM)
4 | CC(=O)NC[C@H]1CN(c2ccc(N3CCN(Cc4ccc(Br)s4)CC3)c(F)c2)C(=O)O1 [Compound No. 27] | 2 µg/mL (≈ 3.91 µM) | 1 µg/mL (≈ 1.96 µM) |  | 2 µg/mL (≈ 3.91 µM) | 0.5 µg/mL (≈ 0.978 µM) | 4 µg/mL (≈ 7.82 µM) | 2 µg/mL (≈ 3.91 µM) | 2 µg/mL (≈ 3.91 µM) | 2 µg/mL (≈ 3.91 µM) |  | 2 µg/mL (≈ 3.91 µM)
5 | CC(=O)NC[C@H]1CN(c2ccc(N3C[C@@H]4[C@H](C3)[C@H]4N(C)Cc3ccc([N+](=O)[O-])s3)c(F)c2)C(=O)O1 [Compound No. 34, (S)-N-[[3-[3-Fluoro[4-[3-(1α,5α,6α)-6-[N-(5-nitro-2-thienyl-methyl)-N-methyl]amino]-3-azabicyclo-[3.1.0]hexane]phenyl]-2-oxo-5-oxazolidinyl]methyl]acetamide] | 4 µg/mL (≈ 7.94 µM) | 2 µg/mL (≈ 3.97 µM) |  | 1 µg/mL (≈ 1.99 µM) | 4 µg/mL (≈ 7.94 µM) | 1 µg/mL (≈ 1.99 µM) | 1 µg/mL (≈ 1.99 µM) | 1 µg/mL (≈ 1.99 µM) | 1 µg/mL (≈ 1.99 µM) |  | 1 µg/mL (≈ 1.99 µM)
6 | CC(=O)NC[C@H]1CN(c2ccc(N3C[C@@H]4[C@@H](CN(C)C(=O)Cc5cccs5)[C@@H]4C3)c(F)c2)C(=O)O1 [Compound No. 38, (S)-N-[[3-[3-Fluoro[4-[3-(1α,5α,6α)-6-[N-(2-thiopheneacetyl)-N-methyl]aminomethyl]-3-azabicyclo-[3.1.0]hexane]phenyl]-2-oxo-5-oxazolidinyl]methyl]acetamide] | 1 µg/mL (≈ 2 µM) | 1 µg/mL (≈ 2 µM) |  | 4 µg/mL (≈ 7.99 µM) | 1 µg/mL (≈ 2 µM) | 4 µg/mL (≈ 7.99 µM) | 4 µg/mL (≈ 7.99 µM) | 4 µg/mL (≈ 7.99 µM) | 4 µg/mL (≈ 7.99 µM) |  | 4 µg/mL (≈ 7.99 µM)
